Data set [1] deals with T1, γ-secretase (Homo sapiens, UniProt P49768). As to the kind of experiment: Substrate specificity: FLAG-Aβ secretion by HEK293 cells transfected with FLAG APP C99, anti-FLAG immunoprecipitation/western blot. It counts as cell-based. The settings on record: for (i) Aβ secretion rate of HEK293 cells: 24 h, FLAG APP C99, negative control = 100%. The protocol: (§1) Of families constituting human Alcadein (hereinafter, referred to as Alc) known as a substrate for γ-secretase to colocalize with APP in brain neurons, an artificial Alcα fragment (hereinafter, referred to as Alcα C150) whose first extracellular cleavage site and γ-secretase cleavage site were determined was used to study the substrate specificity of the γ-secretase inhibitor of the present invention. β-Alcα produced from a first cleavage construct of Alcα cannot be quantified by sELISA used in Aβ measurement. Therefore, proteins with an attached FLAG tag at the N termini of first cleavage constructs of Alcα and of C99 were expressed by cells. FLAG-Aβ-like peptides secreted into a medium were collected by immunoprecipitation using anti-FLAG antibodies and detected by western blotting using the antibodies. A specific method thereof is shown below.
(§2) HEK293 cells (ATCC) (1×10^7 cells/10 cm dish) cultured in 6 ml of 10% FCS-containing DMEM (Wako Pure Chemical Industries, Ltd.) were transfected with FLAG APP C99 pcDNA3.1 (the nucleotide sequence of its coding region is shown in SEQ ID NO: 2) (J. Biol. Chem., 2003, 278, 49448-49458 (which was prepared from pcDNA3-APPC99)) or with FLAG Alcα C150 pcDNA3.1 (the nucleotide sequence of its coding region is shown in SEQ ID NO: 3) (J. Biol. Chem., 2004, 279, 24343-24354 (which was the same as pcDNA3AlcαΔE)) using Lipofectamine 2000 (Invitrogen Corp.) according to the protocol included in the reagent. Each inhibitor and a positive control (γ-Secretase Inhibitor IX (DAPT)) (Calbiochem Contact Information) were separately added at a concentration of 0.2 or 2 μmol/L. The same dose of DMSO (Wako Pure Chemical Industries, Ltd.) thereas was added as a negative control. 24 hours later, the culture supernatants were collected, and samples were preliminarily purified using beads (100 μL of 50% (v/v) Protein-G Sepharose (GE Healthcare)). Then, 15 μL of 50% (v/v) anti-FLAG antibody M2 beads (Sigma-Aldrich Corp.) were added thereto, and the samples were incubated at 4° C. for 1 hour. The beads were collected by centrifugation and washed three times with a buffer (10 mM Tris-HCl [pH 8.0], 140 mM NaCl, 0.1% n-octyl glucoside, 0.025% sodium azide), and Aβ and β-Alcα in the medium were collected. The proteins were subjected to SDS-PAGE using a 15% Tris-Tricine gel (Anal Biochem., 1987, 166 (2), 368-379) and then transferred to a membrane. The membrane was boiled for 5 minutes in PBS. Then, anti-FLAG M2 antibodies (5 μg/ml) (Sigma-Aldrich Corp.) were added thereto, and the membrane was incubated, followed by detection using a western blotting detection reagent ECL (GE Healthcare). This signal was quantified using Versa-doc system (Bio-Rad Laboratories, Inc.) to calculate protein secretion rates (the protein secretion rate of the negative control is defined as 100%).

Data set [2] deals with T1, γ-secretase. As to the kind of experiment: Substrate specificity: β-Alcα secretion by HEK293 cells transfected with FLAG Alcα C150, anti-FLAG immunoprecipitation/western blot. The settings on record: for (ii) β-Alcα secretion rate of HEK293 cells: 24 h, FLAG Alcα C150, negative control = 100%. The format is cell-based. How it is done:
as §1, §2

Another data set concerns C99 cells. Nature of the data set: Cytotoxicity on C99 cells, cell viability by Cell Counting Kit-8. The format is cell-based, human. The settings on record: 24 h. How it is done:
The cytotoxicity of four test substances (TLVM-5, TLVM-7, TLVM-8, and TLVM-9) on the C99 cells was measured using a method shown below.
(§3) In the present test, a medium used for the C99 cells was 500 mL of a Dulbecco's Modified Eagle's Medium (DMEM, Sigma-Aldrich Corp.) supplemented with 55 ml of fetal bovine serum (Biosource), 5.5 ml of MEM non-essential amino acids (Gibco), and 5.5 ml of penicillin/streptomycin (Gibco).
The C99 cells were suspended at a concentration of 0.75×10^5 cells/ml in the medium. The suspension was added at a concentration of 100 μL (0.75×10^4 cells)/well to a 96-well collagen plate (Akita Sumitomo Bakelite Co., Ltd.) and cultured for 2 days. Then, the medium (corresponding to 50 μL/well) in the wells was removed, and a fresh medium was added thereto at a concentration of 30 μL/well. […] Then, the cell viability was measured using Cell Counting Kit-8 (Dojindo Laboratories).
A general note: Formazan colour is commonly taken as a measure of viable cells.

Data set [3] deals with T1, γ-secretase. As to the kind of experiment: Aβ secretion by C99 cells (HEK293 stably expressing APP-C99), γ-secretase inhibitory effect, Aβ ELISA of culture supernatant. The format is cell-based. The settings on record: for IC50: interpolated from the two concentrations that bracket 50%.
Text: HEK293 cells (ATCC) were transfected with APP C99 pcDNA3.1 (the nucleotide sequence of its coding region is shown in SEQ ID NO: 1) (J. Biol. Chem., 2003, 278, 49448-49458). Cell strains (C99 cells) confirmed to stably express APP-C99 (artificial APP fragment that originally lacked a polypeptide portion to be cleaved by α- or β-secretase at the first stage in the two-stage reaction of Aβ production from APP) were used to study the γ-secretase inhibitory effects of four test substances (TLVM-5, TLVM-7, TLVM-8, and TLVM-9) in vitro.
as §3
The C99 cells were suspended at a concentration of 5×10^4 cells/ml in the medium. The suspension was added at a concentration of 1 ml (5×10^4 cells)/well to a 24-well collagen plate (Akita Sumitomo Bakelite Co., Ltd.) and cultured for 3 days. Then, the medium in the wells was removed, and the wells were washed with a medium (1 ml/well). The medium was removed, and a fresh medium was then added thereto at a concentration of 0.4 ml/well. The cells were exposed to the test substances and positive controls and incubated for 24 hours, and the culture supernatants were collected. The positive controls used were L-685,458 (CALBIOCHEM) and Boc-Leu-Val-Met-Leu-OMe (hereinafter, referred to as LVML-1) disclosed in Example 1 of Patent Document 1 (WO03/091278). The exposure concentrations were set to four concentrations, 0.3, 1, 3, and 10 μmol/L, for all the test substances and the positive controls. The concentrations of Aβ (1-40) and Aβ (1-42) in the culture supernatants were measured using Human Amyloid β (1-40) (N) Assay Kit (L)-IBL and Human Amyloid β (1-42) (N) Assay Kit (L)-IBL (Immuno-Biological Laboratories, Co., Ltd.). The amounts of Aβ (1-40) and Aβ (1-42) secreted were calculated by subtracting the concentrations of Aβ (1-40) and Aβ (1-42) originally contained in the medium before the C99 cell inoculation, from the measured concentrations thereof, respectively. Moreover, when the Aβ secretion rate of a negative control (5% DMSO-containing medium, resulting in 1% DMSO at the final concentration) is defined as 100%, Aβ secretion rates at each concentration of the test substances and the positive controls were calculated.
The TLVM-5, TLVM-7, TLVM-8, and TLVM-9 confirmed in Example 8 to have strong inhibitory activities against γ-secretase activities were subjected to an additional experiment at low concentrations (exposure concentrations were set to three concentrations, […], for the test substances and to four concentrations, 0.1, 0.3, 1, and 3 μmol/L, for the positive control).
Moreover, Aβ secretion rates at two concentrations of the test substance that bracket the concentration at which Aβ secretion was inhibited by 50% (IC50) were used to calculate IC50 according to the following equation: IC50:10^[LOG(A/B)*(50−C)/(D−C)+LOG(B)],wherein
A: of the two points that bracket 50% inhibition, the higher concentration of the test substance,
B: of the two points that bracket 50% inhibition, the lower concentration of the test substance,
C: secretion rate (%) at the concentration B, and
D: secretion rate (%) at the concentration A.
In general terms: An ELISA detects its analyte on a solid surface through an enzyme-linked reagent.

[4] abbreviates: Example 8, exposure 0.3 μmol/L, 24 h.
[5] abbreviates: Example 8, exposure 0.3 μmol/L, 24 h, negative control = 100%.
Setting [6] is: Example 8, exposure 1 μmol/L, 24 h.
[7] abbreviates: Example 8, exposure 3 μmol/L, 24 h.
The mark [8] stands for this setting: Example 8, exposure 10 μmol/L, 24 h.

Read-outs that look alike come from different tables or passages of the source. *: point of attachment. Boc = CC(C)(C)OC(=O)*

In the case of `C[C@H](NC(=O)Cc1cc(F)cc(F)c1)C(=O)N[C@H](C(=O)OC(C)(C)C)c1ccccc1` [DAPT, reference compound], the “(i)/(ii) ratio, Aβ / β-Alcα secretion rates” value is 0.35 on γ-secretase [1] (0.2 μmol/L) and 1.26 on γ-secretase [1] (2 μmol/L). Also, the entries for the “(i) Aβ secretion rate of HEK293 cells” value on γ-secretase [1] (0.2 μmol/L) and at γ-secretase [1] (2 μmol/L) were 8% and 20%, respectively. In addition, the “(ii) β-Alcα secretion rate of HEK293 cells” value on γ-secretase [2] (0.2 μmol/L) came to 23%; at γ-secretase [2] (2 μmol/L) it was 16%.

On to `CC(C)C[C@H](NC(=O)[C@H](Cc1ccccc1)C[C@@H](O)[C@H](Cc1ccccc1)NC(=O)OC(C)(C)C)C(=O)N[C@@H](Cc1ccccc1)C(N)=O` [L-685, 458, reference compound], for which the “Cell viability of C99 cells” value in the data set on C99 cells (exposure 0.3 μmol/L) was found to be 133%; in the data set on C99 cells (exposure 1 μmol/L), 125%; with C99 cells (exposure 3 μmol/L), 110%; with C99 cells (exposure 10 μmol/L), 99%. Further, the “Aβ (1-42) secretion rate of C99 cells” value is listed as 96% at γ-secretase [3] (setting [4]); 70% at γ-secretase [3] (setting [6]); 49% at γ-secretase [3] (setting [7]); 24% at γ-secretase [3] (setting [8]); 97% at γ-secretase [3] (Example 9, exposure 0.1 μmol/L); 91% at γ-secretase [3] (Example 9, exposure 0.3 μmol/L). Besides, the “Aβ (1-42) secretion rate of C99 cells” value on γ-secretase [3] (Example 9, exposure 1 μmol/L) worked out at 87%; on γ-secretase [3] (Example 9, exposure 3 μmol/L) it was 8%. For the same compound, the “Aβ [(1-40) + (1-42)] secretion rate of C99 cells” value on γ-secretase [3] (setting [4]) came out at 101%; on γ-secretase [3] (setting [6]) it was 68%; at γ-secretase [3] (setting [7]), 39%; on γ-secretase [3] (setting [8]) it was 9%; on γ-secretase [3] (Example 9, exposure 0.1 μmol/L) it was 113%; at γ-secretase [3] (Example 9, exposure 0.3 μmol/L), 90%. For the same compound, the “Aβ [(1-40) + (1-42)] secretion rate of C99 cells” value is on record as 73% on γ-secretase [3] (Example 9, exposure 1 μmol/L) and 31% on γ-secretase [3] (Example 9, exposure 3 μmol/L). In addition, the “Aβ (1-40) secretion rate of C99 cells” value at γ-secretase [3] (setting [5]) amounted to 101%; at γ-secretase [3] (setting [6]) it was 68%; on γ-secretase [3] (setting [7]) it was 38%; at γ-secretase [3] (setting [8]) it was 9%; on γ-secretase [3] (Example 9, exposure 0.1 μmol/L), 114%; on γ-secretase [3] (Example 9, exposure 0.3 μmol/L), 90%. For the same compound, the “Aβ (1-40) secretion rate of C99 cells” value on γ-secretase [3] (Example 9, exposure 1 μmol/L) is reported as 72%; at γ-secretase [3] (Example 9, exposure 3 μmol/L), 32%. The IC50 is 1800 nM on γ-secretase [3] (Example 9, read-out: IC50, Aβ (1-40) secretion of C99 cells) and 1700 nM on γ-secretase [3] (Example 9, read-out: IC50, Aβ (1-42) secretion of C99 cells).

For the compound `CSCC[C@H](NC(=O)[C@H](C)NC(=O)[C@H](CC(C)C)C[C@@H](O)[C@@H](NC(=O)OC(C)(C)C)[C@@H](C)O)C(=O)NCc1ccccc1` [TLVM-10, [5S-(tert-butoxycarbonylamino)-4R,6R-dihydroxy-2R-(2-methylpropyl)heptanoyl]-L-alanyl-L-methionine benzylamide], at γ-secretase [1] (2 μmol/L), the “(i)/(ii) ratio, Aβ / β-Alcα secretion rates” value came to 0.39; the “cleavage of APP-C99, in words” value was “specifically inhibited”; the “(i) Aβ secretion rate of HEK293 cells” value came to 37%. On γ-secretase [2] (2 μmol/L), the “γ cleavage of the Alcα-C150, in words” value was “did not inhibit” and the “(ii) β-Alcα secretion rate of HEK293 cells” value was 94%.

Consider “Boc-Leu-Val-Met-Leu-OMe (Boc-LVML-OMe; SMILES COC(=O)[C@H](CC(C)C)NC(=O)[C@H](CCSC)NC(=O)[C@@H](NC(=O)[C@H](CC(C)C)NC(=O)OC(C)(C)C)C(C)C) [LVML-1, reference compound]”, for which the “Aβ (1-42) secretion rate of C99 cells” value with γ-secretase [3] (setting [4]) is listed as 95%; with γ-secretase [3] (setting [6]), 78%; with γ-secretase [3] (setting [7]) it was 104%; with γ-secretase [3] (setting [8]) it was 61%. The “Aβ [(1-40) + (1-42)] secretion rate of C99 cells” value in the data set with γ-secretase [3] (setting [4]) amounted to 138%; in the data set with γ-secretase [3] (setting [6]), 110%; with γ-secretase [3] (setting [7]), 105%; with γ-secretase [3] (setting [8]), 82%. Moreover, the “Aβ (1-40) secretion rate of C99 cells” value with γ-secretase [3] (setting [5]) is 140%; with γ-secretase [3] (setting [6]), 112%; in the data set with γ-secretase [3] (setting [7]) it was 106%; in the data set with γ-secretase [3] (setting [8]) it was 83%.

In general, IC50 refers to the midpoint of a concentration-inhibition curve.

(Values after patent US8501813B2, “γ-secretase inhibitor” (Kabushiki Kaisha Yakult Honsha, priority 2007, dated 2013).)
